molecular target: T1, human CCR1 (Homo sapiens, UniProt P32246); assay: CCR1 binding protocol (SPA, [125I]-MIP-1α displacement); settings: cell membrane expressing human CCR1, 0.1 nM [125I]-MIP-1α, 4 hours at ambient temperature; read-out: Relative potency (IC50)
T1 sequence (P32246 1-355): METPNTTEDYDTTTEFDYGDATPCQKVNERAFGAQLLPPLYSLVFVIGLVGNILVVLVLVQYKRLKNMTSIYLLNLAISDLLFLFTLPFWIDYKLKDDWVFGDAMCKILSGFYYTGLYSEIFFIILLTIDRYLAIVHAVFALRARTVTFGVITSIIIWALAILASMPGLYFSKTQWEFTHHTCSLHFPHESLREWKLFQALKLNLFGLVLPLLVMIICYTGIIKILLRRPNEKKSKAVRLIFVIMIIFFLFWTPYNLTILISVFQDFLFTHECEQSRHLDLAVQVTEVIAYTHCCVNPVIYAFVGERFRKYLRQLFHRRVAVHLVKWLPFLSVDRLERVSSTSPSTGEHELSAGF
Procedure, shortened: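 Displacement of 0.1 nM [125I]-MIP-1α (final) from membranes expressing human CCR1 was measured by scintillation proximity after 4 h at ambient temperature. Conditions: pH 7.4 Tris buffer with 0.1% BSA and MnCl, and 0.5 μg membrane per well. Compounds were tested as a 10-step ½-log series from a 10 mM DMSO stock to derive IC50.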

Compared with `Cc1nnc([C@H]2CCCN2C(=O)Cc2cccc(C(F)(F)F)c2)n1Cc1ccc(Cl)cc1` [Compound 461], `Cc1nnc([C@H]2CCCN2C(=O)N[C@H]2CCOc3cc(C(F)(F)F)ccc32)n1Cc1ccc(Cl)cc1` [Compound 111] is lower in IC50: 50 to 500 nM for the first, under 50 nM for the second. The second is the more potent here.

`CC1(C)CC[C@@H](NC(=O)N2CCC[C@@H]2c2ncnn2Cc2ccc(Cl)cc2)c2ccccc21` [Compound 77] and `CC1(C)CC(NC(=O)N2CCC[C@@H]2c2ncnn2Cc2ccc(Cl)cc2)c2ccccc2O1` (some centres unmarked) [Compound 85] fall in the same range of IC50: 50 to 500 nM for the first, 50 to 500 nM for the second.

`Cc1nc(C(F)(F)F)ccc1NC(=O)N1CCC[C@@H]1c1nnc(C)n1Cc1ccc(Cl)cc1` [Compound 404] and `Cc1noc(C(F)(F)F)c1NC(=O)N1CCC[C@@H]1c1nnc(C)n1Cc1ccc(Cl)cc1` [Compound 616] cannot be ordered by IC50: under 50 nM for the first, under 50 nM for the second.

First: Cc1noc(C)c1Nc1c(N2CCC[C@@H]2c2nnc(C)n2Cc2ccc(Cl)cc2)c(=O)c1=O [Compound 555]
Second: Cc1cc(C)c(S(=O)(=O)N(C)C)cc1Nc1c(N2CCC[C@@H]2c2nnc(C)n2Cc2ccc(Cl)cc2)c(=O)c1=O [Compound 609]
The IC50 of the first is higher: 500 to 5000 nM for the first, 50 to 500 nM for the second. The second is the more potent here.

`Cc1nnc([C@H]2CCCN2C(=O)Nc2c(Cl)ncnc2N(C)C)n1Cc1ccc(Cl)cc1` [Compound 182] and `Cc1nc(Cl)c(NC(=O)N2CCC[C@@H]2c2nnc(C)n2Cc2ccc(Cl)cc2)c(Cl)n1` [Compound 178] cannot be ordered by IC50: under 50 nM for the first, under 50 nM for the second.

`Cc1nnc([C@H]2CCCN2C(=O)Nc2ccc(Cl)cc2F)n1[C@H](C)c1ccc(Cl)cc1` [Compound 349] and `Cc1nnc([C@H]2CCCN2C(=O)Nc2ccc(Cl)cc2F)n1C1(c2ccc(Cl)cc2)CC1` [Compound 325] fall in the same range of IC50: 50 to 500 nM for the first, 50 to 500 nM for the second.

First: Cc1nnc([C@H]2CCCN2C(=O)N[C@@H](C)c2ccc3ccccc3c2)n1Cc1ccc(Cl)cc1 [Compound 131]
Second: Cc1nnc([C@H]2CCCN2C(=O)Nc2ccc3occc3c2)n1Cc1ccc(Cl)cc1 [Compound 122]
The IC50 of the first is lower: under 50 nM for the first, 50 to 500 nM for the second. The first is the more potent here.

First: Cc1cc(C)c(NC(=O)N2CCC[C@@H]2c2nnc(C)n2Cc2ccc(Cl)cc2)c(C(N)=O)c1 [Compound 206]
Second: Cc1cc(C)c(NC(=O)N2CCC[C@@H]2c2nnc(C)n2Cc2ccc(Cl)cc2)c(C(=O)N(C)C)c1 [Compound 239]
The IC50 of the first is lower: under 50 nM for the first, 50 to 500 nM for the second. The first is the more potent here.

First: Cc1nnc([C@H]2CCCN2C(=O)Nc2cnc(C(F)(F)F)nc2)n1Cc1ccc(Cl)cc1 [Compound 453]
Second: Cc1nnc([C@H]2CCCN2C(=O)Nc2cncnc2)n1Cc1ccc(Cl)cc1 [Compound 250]
The IC50 of the first is lower: 50 to 500 nM for the first, 500 to 5000 nM for the second.

First: Cc1nnc([C@H]2CCCN2C(=O)N[C@@H]2CC(C)(C)Oc3cc(C(F)(F)F)ccc32)n1Cc1ccc(Cl)cc1 [Compound 262]
Second: Cc1nnc([C@H]2CCCN2C(=O)NC2CCOc3cc(C#N)ccc32)n1Cc1ccc(Cl)cc1 (some centres unmarked) [Compound 134]
The IC50 of the first is higher: 500 to 5000 nM for the first, under 50 nM for the second.

`CC(=O)O[C@@H]1C[C@H](c2nncn2Cc2ccc(Cl)cc2)N(C(=O)NC(c2ccccc2)c2ccccc2)C1` [Compound 478] and `O=C(NCc1ccc(Cl)cc1Cl)N1C[C@H](O)C[C@@H]1c1nncn1Cc1ccc(Cl)cc1` [Compound 475] fall in the same range of IC50: 50 to 500 nM for the first, 50 to 500 nM for the second.

`Cc1nnc([C@H]2CCCN2C(=O)NC2(c3ccccc3C(F)(F)F)CC2)n1Cc1ccc(Cl)cc1` [Compound 264] and `Cc1nnc([C@H]2CCCN2C(=O)Oc2ccc(Cl)cc2)n1Cc1ccc(Cl)cc1` [Compound 175] fall in the same range of IC50: 500 to 5000 nM for the first, 500 to 5000 nM for the second.

`Cc1oc(-c2ccccc2)cc1NC(=O)N1CCC[C@@H]1c1nccn1Cc1ccc(Cl)cc1` [Compound 31] and `C[C@H](NC(=O)N1CCC[C@@H]1c1ncnn1Cc1ccc(Cl)cc1)c1cc2ccccc2o1` [Compound 81] cannot be ordered by IC50: under 50 nM for the first, under 50 nM for the second.

`CCc1nnc([C@H]2CCCN2C(=O)Nc2ccc(Cl)cc2F)n1Cc1ccc(Cl)cc1` [Compound 583] and `O=C(Nc1ccc(Cl)cc1F)N1CCC[C@@H]1c1nnc(Cl)n1Cc1ccc(Cl)cc1` [Compound 552] cannot be ordered by IC50: under 50 nM for the first, under 50 nM for the second.

First: Cc1noc(C)c1NC(=O)N1CC2CC2[C@@H]1c1nnc(C)n1Cc1ccc(Cl)cc1 (some centres unmarked) [Compound 564]
Second: Cc1noc(C)c1NC(=O)N1CC(F)C[C@@H]1c1nnc(C)n1Cc1ccc(Cl)cc1 (some centres unmarked) [Compound 575]
The IC50 of the first is higher: 50 to 500 nM for the first, under 50 nM for the second. The second is the more potent here.

First: Cc1ncc(Cc2ccc(Cl)cc2)c([C@H]2CCCN2C(=O)Nc2ccc3c(c2)N(C)C(=O)CO3)n1 [Compound 27]
Second: Cc1cc(C(F)(F)F)cc(C)c1NC(=O)N1CCC[C@@H]1c1ncncc1Cc1ccc(Cl)cc1 [Compound 12]
The IC50 of the first is higher: 500 to 5000 nM for the first, under 50 nM for the second. The second is the more potent here.

`Cc1cc(C(F)(F)F)cc(Br)c1NC(=O)N1CCC[C@@H]1c1ncnn1Cc1ccc(Cl)cc1` [Compound 61] and `Cc1cc(C(F)(F)F)cc(C)c1NC(=O)N1CCC[C@@H]1c1ncnn1Cc1ccc(Cl)cc1` [Compound 58] cannot be ordered by IC50: under 50 nM for the first, under 50 nM for the second.

Compared with `CCc1cc(Cn2c(C)nnc2[C@H]2CCCN2C(=O)Nc2ccc(Cl)cc2F)ccc1Cl` [Compound 635], `Cc1nnc([C@H]2CCCN2C(=O)Nc2ccc(Cl)cc2F)n1Cc1ccc(Cl)nc1` [Compound 364] is higher in IC50: 50 to 500 nM for the first, 500 to 5000 nM for the second. The first is the more potent here.

Compared with `O=C(NCc1ccc(C(F)(F)F)cc1)N1CCC[C@@H]1c1nnc(CO)n1Cc1ccc(Cl)cc1` [Compound 312], `Cc1nnc([C@H]2C[C@@H](O)CN2C(=O)Nc2ccc(C(F)(F)F)cc2)n1Cc1ccc(Cl)cc1` [Compound 391] is higher in IC50: under 50 nM for the first, 500 to 5000 nM for the second.

Compared with `Cc1noc(-c2ccccc2)c1NC(=O)N1CC(F)C[C@@H]1c1nnc(C)n1Cc1ccc(Cl)cc1` (some centres unmarked) [Compound 573], `Cc1nnc([C@H]2CC(F)CN2C(=O)NC2C[C@@H]2c2ccccc2)n1Cc1ccc(Cl)cc1` (some centres unmarked) [Compound 576] is higher in IC50: under 50 nM for the first, 50 to 500 nM for the second. The first is the more potent here.

Compared with `Cc1nnc([C@H]2C[C@@H](O)CN2C(=O)Nc2ccc(Cl)c(C(F)(F)F)c2)n1Cc1ccc(Cl)cc1` [Compound 446], `Cc1nnc([C@H]2CCCN2C(=O)N[C@@H]2CCS(=O)(=O)c3ccc(Cl)cc32)n1Cc1ccc(Cl)cc1` [Compound 368] is lower in IC50: 50 to 500 nM for the first, under 50 nM for the second. The second is the more potent here.

`CC[C@H](NC(=O)N1CCC[C@@H]1c1nccn1Cc1ccc(Cl)cc1)c1ccc(C(F)(F)F)cc1` [Compound 44] and `Cn1cc(Cc2ccc(Cl)cc2)c([C@H]2CCCN2C(=O)Nc2ccc(C(F)(F)F)cc2)n1` [Compound 8] fall in the same range of IC50: 50 to 500 nM for the first, 50 to 500 nM for the second.

`O=C(Nc1ccc(C(F)(F)F)cc1)N1CCC[C@@H]1c1oncc1Cc1ccc(Cl)cc1` [Compound 5] and `Cc1nnc([C@H]2CCCN2C(=O)N[C@H]2CCOc3cc(C(F)(F)F)ccc32)n1C1(c2ccc(Cl)cc2)CC1` [Compound 328] fall in the same range of IC50: 50 to 500 nM for the first, 50 to 500 nM for the second.

First: CC(=O)N1CCC(NC(=O)N2CCC[C@@H]2c2nnc(C)n2Cc2ccc(Cl)cc2)CC1 [Compound 450]
Second: Cc1nn(C)c(C)c1NC(=O)N1CCC[C@@H]1c1nnc(C)n1Cc1ccc(Cl)cc1 [Compound 320]
The IC50 of the first is higher: 500 to 5000 nM for the first, under 50 nM for the second. The second is the more potent here.

First: Cc1onc(-c2ccncc2)c1NC(=O)N1CCC[C@@H]1c1nnc(C)n1Cc1ccc(Cl)cc1 [Compound 304]
Second: Cc1noc(C)c1NC(=O)N1CCC[C@@H]1c1nnc(C)n1Cc1ccc(F)cc1 [Compound 385]
The IC50 of the first is lower: under 50 nM for the first, 50 to 500 nM for the second.

`O=C(N[C@@H]1CCCOc2ccc(Cl)cc21)N1CCC[C@@H]1c1nncn1Cc1ccc(Cl)cc1` [Compound 148] and `CC(C)Cc1ccc([C@H](C)NC(=O)N2CCC[C@@H]2c2ncnn2Cc2ccc(Cl)cc2)cc1` [Compound 75] fall in the same range of IC50: 50 to 500 nM for the first, 50 to 500 nM for the second.

`Cc1noc(C)c1NC(=O)N1CCC[C@@H]1c1noc(C)c1Cc1ccc(Cl)cc1` [Compound 7] gave an IC50 of 50 to 500 nM.

From patent US8288371B2, “Ortho pyrrolidine, benzyl-substituted heterocycle CCR1 antagonists for autoimmune diseases and inflammation” (Pharmacopeia, LLC, priority 2007, dated 2012)
